Among the data in patent publication US11673910B2, “Macrolides with modified desosamine sugars and uses thereof” (Zikani Therapeutics, Inc., priority 2017, dated 2023) are MIC values, retold here.

What all share (type): cell-based
In one assay the test system is E. coli strain MP-4. In words: Broth dilution MIC determination (CLSI) against E. coli strain MP-4. The conditions noted are these: Escherichia coli, MP4. The procedure, abridged:
(§1)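 MICs were determined by CLSI standard broth dilution. Values are binned: "+++" ≤4 mg/L, "++" ≥8 and <32 mg/L, "+" ≥32 mg/L.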

Assay [1] relates to K. pneumoniae strain MP-548. In words: Broth dilution MIC determination (CLSI) against K. pneumoniae strain MP-548. The note with it: Klebsiella pneumoniae, MP548. The procedure, abridged:
as §1
On the technique in general: In broth dilution the organism is exposed to a series of concentrations in liquid medium.

Assay [2] relates to P. aeruginosa strain MP-3. The experiment in a line: Broth dilution MIC determination (CLSI) against P. aeruginosa strain MP-3. The conditions noted are these: Pseudomonas aeruginosa, MP3. The procedure, abridged:
as §1

For assay [3], the system named is A. baumannii strain MP-15. In words: Broth dilution MIC determination (CLSI) against A. baumannii strain MP-15. The note with it: Acinetobacter baumannii, MP15. A digest of the protocol:
as §1

The subject of the next assay is S. aureus strain MP-12. In words: Broth dilution MIC determination (CLSI) against S. aureus strain MP-12. The conditions noted are these: Staphylococcus aureus, MP12, strain MP-12. A digest of the protocol:
as §1

SMILES strings stand for the structures. Values after ≈ are worked out from the molar mass of the structure shown.

As for `CC[C@H]1OC(=O)C(C)C(=O)[C@H](C)[C@@H](OC2OC(CN[C@@H]3C[C@H]3C)CC(N(C)C)C2O)[C@](C)(OC)C[C@@H](C)CN[C@H](C)[C@H]2NC(=O)O[C@@]21C` (stereo partly shown) [Compound 134, 3-Descladinosyl-3-oxo-6-O-methyl-N9a-desmethyl-11,12-dideoxy-12,11-(oxycarbonylimino)-6′-((1″R,2″R)-2″-methylcyclopropyl)amino Azithromycin], the MIC (in general, the lowest concentration that inhibits growth of the organism) in the assay on E. coli strain MP-4 is no more than 4 µg/mL; in assay [1], no more than 4 µg/mL; in assay [2] it was no less than 32 µg/mL; in assay [3], 8 to 32 µg/mL (≈ 11.7 to 46.9 µM); against S. aureus strain MP-12, no less than 32 µg/mL.

On to `CC[C@H]1OC(=O)C(C)C(=O)[C@H](C)[C@@H](OC2OC(CN3CCCCC34CC4)CC(N(C)C)C2O)[C@](C)(OC)C[C@@H](C)CN[C@H](C)[C@H]2NC(=O)O[C@@]21C` (stereo partly shown) [Compound 135, 3-Descladinosyl-3-oxo-6-O-methyl-N9a-desmethyl-11,12-dideoxy-12,11-(oxycarbonylimino)-6′-(4″-azaspiro[2″.5″]octanyl)amino Azithromycin], for which the minimal inhibitory concentration (MIC) with E. coli strain MP-4 was no more than 4 µg/mL; in assay [1], 8 to 32 µg/mL (≈ 11.1 to 44.3 µM); in assay [2], no less than 32 µg/mL; in assay [3], no more than 4 µg/mL; with S. aureus strain MP-12, 8 to 32 µg/mL (≈ 11.1 to 44.3 µM).

For `CC[C@H]1OC(=O)C(C)C(=O)[C@H](C)[C@@H](OC2OC(CNCC(F)F)CC(N(C)C)C2O)[C@](C)(OC)C[C@@H](C)CN[C@H](C)[C@H]2NC(=O)O[C@@]21C` (stereo partly shown) [Compound 136, 3-Descladinosyl-3-oxo-6-O-methyl-N9a-desmethyl-11,12-dideoxy-12,11-(oxycarbonylimino)-6′-difluoroethylamino Azithromycin], the minimal inhibitory concentration (MIC) with E. coli strain MP-4 was no more than 4 µg/mL; in assay [1], 8 to 32 µg/mL (≈ 11.5 to 46.2 µM); in assay [2], no less than 32 µg/mL; in assay [3], no less than 32 µg/mL; against S. aureus strain MP-12 it was 8 to 32 µg/mL (≈ 11.5 to 46.2 µM).

For `CC[C@H]1OC(=O)C(C)C(=O)[C@H](C)[C@@H](OC2OC(CN3CC4CC4C3)CC(N(C)C)C2O)[C@](C)(OC)C[C@@H](C)CN[C@H](C)[C@H]2NC(=O)O[C@@]21C` (stereo partly shown) [Compound 137, 3-Descladinosyl-3-oxo-6-O-methyl-N9a-desmethyl-11,12-dideoxy-12,11-(oxycarbonylimino)-6′-azabicyclo[3.1.0]hexan-3″-ylamino Azithromycin], the MIC is no more than 4 µg/mL with E. coli strain MP-4; 8 to 32 µg/mL (≈ 11.5 to 46 µM) in assay [1]; no less than 32 µg/mL in assay [2]; 8 to 32 µg/mL (≈ 11.5 to 46 µM) in assay [3]; no less than 32 µg/mL against S. aureus strain MP-12.

Consider `CC[C@H]1OC(=O)C(C)C(=O)[C@H](C)[C@@H](OC2OC(CN3CCC(C)(C)CC3)CC(N(C)C)C2O)[C@](C)(OC)C[C@@H](C)CN[C@H](C)[C@H]2NC(=O)O[C@@]21C` (stereo partly shown) [Compound 138, 3-Desdadinosyl-3-oxo-6-O-methyl-N9a-desmethyl-11,12-dideoxy-12,11-(oxycarbonylimino)-6′-(4″,4″-dimethylpiperidin-1-yl) Azithromycin], for which the minimum inhibitory concentration (MIC) was no more than 4 µg/mL against E. coli strain MP-4; no less than 32 µg/mL in assay [1]; no less than 32 µg/mL in assay [2]; no less than 32 µg/mL in assay [3]; no less than 32 µg/mL against S. aureus strain MP-12.

Turning to `CC[C@H]1OC(=O)C(C)C(=O)[C@H](C)[C@@H](OC2OC(CN3CC(F)(F)C3)CC(N(C)C)C2O)[C@](C)(OC)C[C@@H](C)CN[C@H](C)[C@H]2NC(=O)O[C@@]21C` (stereo partly shown) [Compound 139, 3-Descladinosyl-3-oxo-6-O-methyl-N9a-desmethyl-11,12-dideoxy-12,11-(oxycarbonylimino)-6′-(3″,3″-difluoroazetidinyl) Azithromycin], the MIC in the assay on E. coli strain MP-4 was no more than 4 µg/mL; in assay [1], 8 to 32 µg/mL (≈ 11.3 to 45.4 µM); in assay [2], no less than 32 µg/mL; in assay [3] it was 8 to 32 µg/mL (≈ 11.3 to 45.4 µM); against S. aureus strain MP-12 it was 8 to 32 µg/mL (≈ 11.3 to 45.4 µM).

Take `CC[C@H]1OC(=O)C(C)C(=O)[C@H](C)[C@@H](OC2OC(CNCCS(C)(=O)=O)CC(N(C)C)C2O)[C@](C)(OC)C[C@@H](C)CN[C@H](C)[C@H]2NC(=O)O[C@@]21C` (stereo partly shown) [Compound 140, 3-Descladinosyl-3-oxo-6-O-methyl-N9a-desmethyl-11,12-dideoxy-12,11-(oxycarbonylimino)-6′-2″-(methylsulfonyl)ethan-1″-amino Azithromycin]: the minimum inhibitory concentration (MIC) (in the assay on E. coli strain MP-4; in assay [1]; in assay [2]; in assay [3]; against S. aureus strain MP-12) was no less than 32 µg/mL each time.

As for `CC[C@H]1OC(=O)C(C)C(=O)[C@H](C)[C@@H](OC2OC(CNC34CC(C3)C4)CC(N(C)C)C2O)[C@](C)(OC)C[C@@H](C)CN[C@H](C)[C@H]2NC(=O)O[C@@]21C` (stereo partly shown) [Compound 141, 3-Descladinosyl-3-oxo-6-O-methyl-N9a-desmethyl-11,12-dideoxy-12,11-(oxycarbonylimino)-6′-(bicyclo[1.1.1]pentanylamino) Azithromycin], the MIC in the assay with E. coli strain MP-4 is no more than 4 µg/mL; in assay [1], no more than 4 µg/mL; in assay [2], no less than 32 µg/mL; in assay [3], 8 to 32 µg/mL (≈ 11.5 to 46 µM); against S. aureus strain MP-12, 8 to 32 µg/mL (≈ 11.5 to 46 µM).

With `CC[C@H]1OC(=O)C(C)C(=O)[C@H](C)[C@@H](OC2OC(CNCCC(F)(F)F)CC(N(C)C)C2O)[C@](C)(OC)C[C@@H](C)CN[C@H](C)[C@H]2NC(=O)O[C@@]21C` (stereo partly shown) [Compound 142, 3-Descladinosyl-3-oxo-6-O-methyl-N9a-desmethyl-11,12-dideoxy-12,11-(oxycarbonylimino)-6′-trifluoropropylamino Azithromycin], the minimum inhibitory concentration (MIC) was no more than 4 µg/mL in the assay with E. coli strain MP-4; 8 to 32 µg/mL (≈ 11 to 44.1 µM) in assay [1]; no less than 32 µg/mL in assay [2]; no less than 32 µg/mL in assay [3]; 8 to 32 µg/mL (≈ 11 to 44.1 µM) in the assay on S. aureus strain MP-12.

As to `CC[C@H]1OC(=O)C(C)C(=O)[C@H](C)[C@@H](OC2OC(CN3CC(F)C3)CC(N(C)C)C2O)[C@](C)(OC)C[C@@H](C)CN[C@H](C)[C@H]2NC(=O)O[C@@]21C` (stereo partly shown) [Compound 143, 3-Descladinosyl-3-oxo-6-O-methyl-N9a-desmethyl-11,12-dideoxy-12,11-(oxycarbonylimino)-6′-(3″-fluoroazetidin-1″-yl) Azithromycin], the minimal inhibitory concentration (MIC) is no more than 4 µg/mL against E. coli strain MP-4; 8 to 32 µg/mL (≈ 11.6 to 46.6 µM) in assay [1]; no less than 32 µg/mL in assay [2]; no less than 32 µg/mL in assay [3]; 8 to 32 µg/mL (≈ 11.6 to 46.6 µM) with S. aureus strain MP-12.

On to `CC[C@H]1OC(=O)C(C)C(=O)[C@H](C)[C@@H](OC2OC(CN3CCC(F)(F)CC3)CC(N(C)C)C2O)[C@](C)(OC)C[C@@H](C)CN[C@H](C)[C@H]2NC(=O)O[C@@]21C` (stereo partly shown) [Compound 144, 3-Descladinosyl-3-oxo-6-O-methyl-N9a-desmethyl-11,12-dideoxy-12,11-(oxycarbonylimino)-6′-(4″,4″-difluoropiperidin-1″-yl) Azithromycin], for which the MIC against E. coli strain MP-4 was no more than 4 µg/mL; in assay [1], 8 to 32 µg/mL (≈ 10.9 to 43.7 µM); in assay [2] it was no less than 32 µg/mL; in assay [3], 8 to 32 µg/mL (≈ 10.9 to 43.7 µM); against S. aureus strain MP-12, 8 to 32 µg/mL (≈ 10.9 to 43.7 µM).

`CC[C@H]1OC(=O)C(C)C(=O)[C@H](C)[C@@H](OC2OC(CN(C)OC)CC(N(C)C)C2O)[C@](C)(OC)C[C@@H](C)CN[C@H](C)[C@H]2NC(=O)O[C@@]21C` (stereo partly shown) [Compound 145]: the MIC with E. coli strain MP-4 is 8 to 32 µg/mL (≈ 11.9 to 47.6 µM); in assay [1], 8 to 32 µg/mL (≈ 11.9 to 47.6 µM); in assay [2], no less than 32 µg/mL; in assay [3], no less than 32 µg/mL; against S. aureus strain MP-12, no less than 32 µg/mL.

In the case of `CO[C@]1(C)C[C@@H](C)CN[C@H](C)[C@H]2NC(=O)O[C@]2(C)[C@@H](C)OC(=O)C(C)C(=O)[C@H](C)[C@H]1OC1OC(CNC2CC2)CC(N(C)C)C1O` (stereo partly shown) [Compound 146, 3-Descladinosyl-3-oxo-6-O-methyl-N9a-desmethyl-11,12-dideoxy-12,11-(oxycarbonylimino)-6′-cyclopropylamino-13-methyl Azithromycin], the MIC (against E. coli strain MP-4; in assay [1]; in assay [2]; in assay [3]; with S. aureus strain MP-12) was no less than 32 µg/mL in each case.

On to `CO[C@]1(C)C[C@@H](C)CN[C@H](C)[C@H]2NC(=O)O[C@]2(C)[C@@H](C)OC(=O)C(C)C(=O)[C@H](C)[C@H]1OC1OC(CNC2CCC2)CC(N(C)C)C1O` (stereo partly shown) [Compound 147, 3-Descladinosyl-3-oxo-6-O-methyl-N9a-desmethyl-11,12-dideoxy-12,11-(oxycarbonylimino)-6′-cyclobutylamino-13-methyl Azithromycin], for which the MIC is 8 to 32 µg/mL (≈ 12 to 47.8 µM) in the assay on E. coli strain MP-4; no less than 32 µg/mL in assay [1]; no less than 32 µg/mL in assay [2]; no less than 32 µg/mL in assay [3]; no less than 32 µg/mL in the assay on S. aureus strain MP-12.

For `CO[C@]1(C)C[C@@H](C)CN[C@H](C)[C@H]2NC(=O)O[C@]2(C)[C@@H](C)OC(=O)C(C)C(=O)[C@H](C)[C@H]1OC1OC(CNCC2CC2)CC(N(C)C)C1O` (stereo partly shown) [Compound 148, 3-Descladinosyl-3-oxo-6-O-methyl-N9a-desmethyl-11,12-dideoxy-12,11-(oxycarbonylimino)-6′-cyclopropylmethylamino-13-methyl Azithromycin], the MIC (against E. coli strain MP-4; in assay [1]; in assay [2]; in assay [3]; in the assay on S. aureus strain MP-12) was no less than 32 µg/mL throughout.

In the case of `CO[C@]1(C)C[C@@H](C)CN[C@H](C)[C@H]2NC(=O)O[C@]2(C)[C@@H](C)OC(=O)C(C)C(=O)[C@H](C)[C@H]1OC1OC(CN2CCCCC2)CC(N(C)C)C1O` (stereo partly shown) [Compound 149, 3-Descladinosyl-3-oxo-6-O-methyl-N9a-desmethyl-11,12-dideoxy-12,11-(oxycarbonylimino)-6′-piperidinyl-13-methyl Azithromycin], the minimal inhibitory concentration (MIC) in the assay on E. coli strain MP-4 was no more than 4 µg/mL; in assay [1], no less than 32 µg/mL; in assay [2], no less than 32 µg/mL; in assay [3], no less than 32 µg/mL; against S. aureus strain MP-12, no less than 32 µg/mL.

`CC[C@H]1OC(=O)C(C)C(=O)[C@H](C)[C@@H](OC2OC(CN(C)C3CCC3)CC(N(C)C)C2O)[C@](C)(OC)C[C@@H](C)CN[C@H](C)[C@H]2NC(=O)O[C@@]21C` (stereo partly shown) [Compound 150, 3-Descladinosyl-3-oxo-6-O-methyl-N9a-desmethyl-11,12-dideoxy-12,11-(oxycarbonylimino)-6′-methylcyclobutylamino Azithromycin]: the MIC is 8 to 32 µg/mL (≈ 11.5 to 45.9 µM) against E. coli strain MP-4; no less than 32 µg/mL in assay [1]; no less than 32 µg/mL in assay [2]; no less than 32 µg/mL in assay [3]; no less than 32 µg/mL in the assay with S. aureus strain MP-12.
